How the values were obtained:
[1] = target: T1, mitochondrial calcium uniporter (MCU) (Homo sapiens, UniProt Q8NE86); experiment: MCU-mediated Ca2+ uptake and ΔΨm in permeabilized HEK293T cells; type: cell-based; set-up: endogenous in cells; host or cells: HEK293T (digitonin-permeabilized); details: 5 μM compound, 20 μM Ca2+ bolus
T1 sequence (Q8NE86 51-351): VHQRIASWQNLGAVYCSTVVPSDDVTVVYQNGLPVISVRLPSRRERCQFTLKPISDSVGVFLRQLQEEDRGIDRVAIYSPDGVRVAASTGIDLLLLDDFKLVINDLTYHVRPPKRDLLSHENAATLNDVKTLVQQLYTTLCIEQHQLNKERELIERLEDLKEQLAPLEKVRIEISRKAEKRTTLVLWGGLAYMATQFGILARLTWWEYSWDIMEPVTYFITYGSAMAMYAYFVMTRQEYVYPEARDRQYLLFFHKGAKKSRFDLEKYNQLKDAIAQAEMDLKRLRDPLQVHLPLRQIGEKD
T1 sequence (Q9H4I9 48-107 partner limits assumed): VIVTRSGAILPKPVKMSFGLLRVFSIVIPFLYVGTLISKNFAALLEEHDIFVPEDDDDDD
Description: An equal number of IHEK293T (6×10^6 cells) were washed in Ca^2+ free PBS, pH 7.4, resuspended and permeabilized with 40 μg/ml digitonin in 1.5 ml of intracellular medium (ICM) composed of 120 mM KCl, 10 mM NaCl, 1 mM K—H2PO4, 20 mM HE PES-Tris, pH 7.2 and 2 μM thapsigargin to block the SERCA pump. All measurements were performed in the presence of 2 mM succinate. The permeabilized cells were loaded with JC-1 (800 nM) and Fura2-FF (0.5 μM), respectively. Fluorescence was monitored in a multi-wavelength excitation dual-wavelength emission fluorimeter. [Ca^2+]out is represented as the excitation ratio (340 nm/380 nm) of Fura2-FF/FA fluorescence and ΔΨm as the ratio of the fluorescence of J-aggregate (570 nm excitation/595 nm emission) and monomer (490 nm excitation/535 nm emission) forms of JC-1. A series of extra-mitochondrial Ca^2+ bolus (20 μM) was added and mitochondrial uncoupler, CCCP (2 jμM), were added at the indicated time points. All of the experiments were performed at 37° C. with constant stirring.
With the new nitrido-bridged ruthenium compounds C-2 and C-3 prepared, MCU-inhibitory properties of these compounds were evaluated and their activities compared to C-1, the oxo-bridged Ru360 analogue of the conventional art (S. R. Nathan et al., Inorg. Chem. 2017, 56, 3123-3126 and S. R. Nathan et al., J. Vis. Exp. 2017, 56527). The cytotoxicity of the complexes in HEK293 cells was first measured using the colorimetric thiazolyl blue tetrazolium bromide (MTT) assay, as well known in the art. […] To measure the effect of these compounds on MCU activity, permeabilized HEK293T cells were treated with commercially available Ru360, C-1, C-2, or C-3 (5 jμM) 200 seconds prior to the delivery of a 20 μM bolus of Ca^2+ in the presence of 2 mM succinate as an energy source and the sarco/endoplasmic reticulum Ca^2+-ATPase (SERCA) pump blocker thapsigargin to prevent ER Ca^2+ uptake (S. Shanmughapriya et al., Sci. Signal. 2015, 8, ra23).
FIGS. 2A-2C are graphs showing changes in mitochondrial membrane potential (ΔΨm, JC-1, top panel) and extramitochondrial Ca^2+([Ca^2+]out) clearance (Fura-2 FF, bottom panel) in digitonin permeabilized HEK293T cells in response to 20 μM of Ca^2+ after treatment with 5 μM of C-1 (FIG. 2A), C-2 (FIG. 2B), and C-3 (FIG. 2C). The transient drop in ΔΨm in control cells upon Ca^2+ addition indicates accumulation of Ca^2+ in the mitochondrial matrix. FIG. 2D is a graph quantifying the rate of [Ca^2+] uptake as a function of decrease in [Ca^2+]out after a […] Ca^2+ pulse. […] Additionally, ΔΨm was monitored using 5,5′,6,6′-tetrachloro-1,1′,3,3′-tetraethylbenzimidazolylcarbocyanine iodide (JC-1) dye (M. Reen et al., Biochemistry 1991, 30, 4480-4486).
Having identified (C-2 as a cell-permeable MCU inhibitor, a dose-response analysis was performed to determine the potency of C-2 towards mCa^2+ uptake inhibition of C-2 in a permeabilized cell system. Permeabilized IHEK293T cells were treated with C-2 (1 nM to 1 μM). A 20 μM Ca^2+ bolus was added after baseline recording, and the extra-mitochondrial calcium cleared was used as an indicator for MCU-mediated mCa^2+ uptake using Fura-2FF. The results are shown in FIGS. 4A-4C. FIG. 4A includes representative traces of [Ca^2+]out clearance in permeabilized HEK293T cells challenged with a range of C-2 concentrations (1, 2, 3, 5, and 10 nM). FIG. 4B is a graph comparing MCU-inhibitory effect by Ru360 (30 nM) and C-2 (2 and 10 nM) at lower concentrations. FIG. 4C is a graph showing calculation of dose-dependent IC50 inhibition by C-2 and Ru360. Data represent mean±SEM (n=3-6), n.s.=not significant. […] Furthermore, complete inhibition of mCa^2+ uptake was observed when cells were dosed with 10 nM C-2 while 500 nM of Ru360 was required for the same response (FIGS. 4A and 4B).

[2] = target: T1, mitochondrial calcium uniporter (MCU); experiment: Cytoplasmic and mitochondrial Ca2+ dynamics in intact HeLa cells after histamine; type: cell-based; set-up: 30 min) and Rhod-2 AM; endogenous in cells; host or cells: HeLa (intact; some experiments with transfected Ca2+ sensors R-GECO1 and GCamP6-mt, MCU itself not transfected); details: intact HeLa cells, 50 μM for 30 minutes, histamine 100 μM; Rhod-2 AM and GCamP6-mt
Description: HeLa cells were loaded with Fluo-4-AM (5 μM; 30 min) and Rhod-2 AM (2 μM; 50 min) in extracellular medium as previously described (F. Perocchi et al, Nature 2010, 467, 291-296). Coverslips were mounted in an open perfusion microincubator at 37° C. and imaged. After 1 minute of baseline recording, histamine (100 μM) was added, and confocal images were recorded every 3 seconds at 488 and 561 nm excitation using a 40× oil objective. Images were analyzed and quantified by using ImageJ (NIH).
HeLa cells were transiently transfected with genetically encoded cytosolic and mitochondrial targeted Ca^2+ sensors R-GECO1 and GCamP6-mt plasmids. After 48 hours, the transfected cells were treated with MCU inhibitors (C1, C-2, and C-3; 50 μM). After 1 minute of baseline recording, histamine (100 μM) was added, and the change of R-GECO1 and GCamP6-mt fluorescence was measured with 488-nm and 561-nm excitation on a confocal microscope equipped with a 40× oil objective. Images were analyzed and quantified by using ImageJ (NIH).
Encouraged by the high cell permeability and mitochondrial selectivity of C-2, the capability of this complex to inhibit MCU-mediated mCa^2+ uptake in intact, non-permeabilized cells was investigated Briefly, HeLa cells were loaded with the cytosolic calcium concentration ([Ca^2+]) indicator Fluo-4 AM and the mitochondrial calcium concentration ([…]) indicator Rhod-2 AM in the presence or absence of C-1, C-2, and C-3 (50 μM). Cells were stimulated with the GPCR agonist histamine (100 μM) to rapidly elevate cCa^2+ levels to induce mCa^2+ uptake (Z. Dong et al., Mol. Cell 2017, 65, 1014-1028).
FIGS. 3A and 3B are graphs showing results of cytosolic ([Ca^2+]e, Fluo-4 AM) and mitochondrial ([Ca^2+]m, Rhod-2 AM) calcium transients in HeLa cells after treatment with histamine (100 μM) that were pretreated with or without C-1, C-2, or C-3 (50 μM) for 30 minutes. FIGS. 3C and 3D are graphs showing results of cytosolic ([Ca^2+]e, R-GECO) and mitochondrial ([Ca^2+]m, GCamP6-mt)) calcium transients in HeLa cells after treatment with histamine (100 μM) that were pretreated with or without C-1, C-2, or C-3 (50 μM) for 30 minutes. HeLa cells were co-transfected with R-GECO1 and GCamP6-mt. 48 hours post-transfection. Data are represented as mean±SEM. *p<0.05. n=3-6.

transient ΔΨm loss (JC-1) ([1]; permeabilized HEK293T cells): no transient A m loss
Substance: [Ru2(μ-O)(NH3)8(H2O)2]^+5 [C-1, reference compound]
MCU mediated mCa2+ uptake ([1]; digitonin permeabilized HEK293T cells): significant reduction in MCU mediated mCa^2+ uptake
inhibition of MCU-mediated mCa2+ uptake in intact cells [2]: did not show appreciable inhibition of mCa^2+ uptake

Reference: patent US11154569B2, “Ruthenium μ-nitrido complexes and their use as calcium uptake inhibitors” (CORNELL UNIVERSITY, priority 2018, dated 2021)
